Each compound was assayed on Human primary T cells (assay: IL-2 ELISA, human primary T cell, anti-CD3+CD28+ (whole cell assay)). Details: Homo sapiens, T-cell, 24 h, human primary T cells stimulated with anti-CD3 + anti-CD28, 24 hours.
Format: cell-based
How it was run: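 PBMC-derived T cells, pre-expanded on αCD3/αCD28 with IL-2 and then washed free of IL-2, were preincubated with compound for 1 hr at 37° C (100,000 cells/well). They were then stimulated on 1 μg/ml αCD3 plus 5 μg/ml αCD28 for 24 h, and supernatant IL-2 was measured by ELISA. The counter-assay used 0.5 ng/ml PMA plus 0.1 μM ionomycin instead.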

IC50, 250 to 500 nM:
CN1C(C)(C)CC(Nc2nc(Nc3ccc(OCCn4ccnn4)c(OC(F)F)c3)ncc2C#N)CC1(C)C [Compound I-55, 4-(1,2,2,6,6-pentamethylpiperidin-4-ylamino)-2-(4-(2-(1H-1,2,3-triazol-1-yl)ethoxy)-3-(difluoromethoxy)phenylamino)pyrimidine-5-carbonitrile]
CC1(C)CC(Nc2nc(Nc3ccc(-c4cccnc4)c(OC(F)F)c3)ncc2F)CC(C)(C)N1 [Compound I-63, N2-(3-(difluoromethoxy)-4-(pyridin-3-yl)phenyl)-5-fluoro-N4-(2,2,6,6-tetramethylpiperidin-4-yl)pyrimidine-2,4-diamine]

IC50, < 250 nM:
CN1C(C)(C)CC(Nc2nc(Nc3ccc(OCCCN4CCOCC4)c(OC(F)F)c3)ncc2F)CC1(C)C [Compound I-48, N2-(4-(3-morpholinopropoxy)-3-(difluoromethoxy)phenyl)-5-fluoro-N4-(1,2,2,6,6-pentamethylpiperidin-4-yl)pyrimidine-2,4-diamine]
CN1C(C)(C)CC(Nc2nc(Nc3ccc(Oc4cccnc4)c(OC(F)F)c3)ncc2C#N)CC1(C)C [Compound I-52, 4-(1,2,2,6,6-pentamethylpiperidin-4-ylamino)-2-(3-(difluoromethoxy)-4-(pyridin-3-yloxy)phenylamino)pyrimidine-5-carbonitrile]
CN1C(C)(C)CC(Nc2nc(Nc3ccc(-c4cccnc4)c(OC(F)F)c3)ncc2F)CC1(C)C [Compound I-64, N2-(3-(difluoromethoxy)-4-(pyridin-3-yl)phenyl)-5-fluoro-N4-(1,2,2,6,6-pentamethylpiperidin-4-yl)pyrimidine-2,4-diamine]

IC50, 500 to 1000 nM:
CN1C(C)(C)CC(Nc2nc(Nc3cc(OCCCn4cccc4)cc(C(F)(F)F)c3)ncc2F)CC1(C)C [Compound I-49, N2-(3-(3-(1H-pyrrol-1-yl)propoxy)-5-(trifluoromethyl)phenyl)-5-fluoro-N4-(1,2,2,6,6-pentamethylpiperidin-4-yl)pyrimidine-2,4-diamine]
CN1C(C)(C)CC(Nc2nc(Nc3ccc(OCCN4CCNC4=O)c(OC(F)F)c3)ncc2F)CC1(C)C [Compound I-51, 1-(2-(4-(4-(1,2,2,6,6-pentamethylpiperidin-4-ylamino)-5-fluoropyrimidin-2-ylamino)-2-(difluoromethoxy)phenoxy)ethyl)imidazolidin-2-one]
CN1C(C)(C)CC(Nc2nc(Nc3ccc(OCCn4cncn4)c(OC(F)F)c3)ncc2C#N)CC1(C)C [Compound I-54, 4-(1,2,2,6,6-pentamethylpiperidin-4-ylamino)-2-(4-(2-(1H-1,2,4-triazol-1-yl)ethoxy)-3-(difluoromethoxy)phenylamino)pyrimidine-5-carbonitrile]
CN1C(C)(C)CC(Nc2nc(Nc3ccc(OCCN4CCCC4=O)c(C(F)(F)F)c3)ncc2F)CC1(C)C [Compound I-56, 1-(2-(4-(4-(1,2,2,6,6-pentamethylpiperidin-4-ylamino)-5-fluoropyrimidin-2-ylamino)-2-(trifluoromethyl)phenoxy)ethyl)pyrrolidin-2-one]
CC1(C)CC(Nc2nc(Nc3ccc(Oc4ccncc4)c(OC(F)F)c3)ncc2C#N)CC(C)(C)N1 [Compound I-58, 4-(2,2,6,6-tetramethylpiperidin-4-ylamino)-2-(3-(difluoromethoxy)-4-(pyridin-4-yloxy)phenylamino)pyrimidine-5-carbonitrile]
CC1(C)CC(Nc2nc(Nc3ccc(OCCN4CCCC4)c(OC(F)F)c3)ncc2F)CC(C)(C)N1 [Compound I-60, N2-(4-(2-(pyrrolidin-1-yl)ethoxy)-3-(difluoromethoxy)phenyl)-5-fluoro-N4-(2,2,6,6-tetramethylpiperidin-4-yl)pyrimidine-2,4-diamine]
CN1C(C)(C)CC(Nc2nc(Nc3ccc(Oc4cccnc4)c(C(F)(F)F)c3)ncc2F)CC1(C)C [Compound I-61, 5-fluoro-N2-(3-(trifluoromethyl)-4-(pyridin-3-yloxy)phenyl)-N4-(1,2,2,6,6-pentamethylpiperidin-4-yl)pyrimidine-2,4-diamine]
CC1(C)CC(Nc2nc(Nc3ccc(OCCN4CCOCC4)c(C(F)(F)F)c3)ncc2F)CC(C)(C)N1 [Compound I-65, N2-(4-(2-morpholinoethoxy)-3-(trifluoromethyl)phenyl)-5-fluoro-N4-(2,2,6,6-tetramethylpiperidin-4-yl)pyrimidine-2,4-diamine]

IC50, > 1000 nM:
CC1(C)CC(Nc2nc(Nc3ccc(OCCN4CCNC4=O)c(OC(F)F)c3)ncc2F)CC(C)(C)N1 [Compound I-50, 1-(2-(4-(4-(2,2,6,6-tetramethylpiperidin-4-ylamino)-5-fluoropyrimidin-2-ylamino)-2-(difluoromethoxy)phenoxy)ethyl)imidazolidin-2-one]
CN1C(C)(C)CC(Nc2nc(Nc3ccc(Oc4ccncc4)c(OC(F)F)c3)ncc2C#N)CC1(C)C [Compound I-53, 4-(1,2,2,6,6-pentamethylpiperidin-4-ylamino)-2-(3-(difluoromethoxy)-4-(pyridin-4-yloxy)phenylamino)pyrimidine-5-carbonitrile]
CC1(C)CC(Nc2nc(Nc3ccc(OCCN4CCCC4=O)c(C(F)(F)F)c3)ncc2F)CC(C)(C)N1 [Compound I-57, 1-(2-(4-(4-(2,2,6,6-tetramethylpiperidin-4-ylamino)-5-fluoropyrimidin-2-ylamino)-2-(trifluoromethyl)phenoxy)ethyl)pyrrolidin-2-one]
CC1(C)CC(Nc2nc(Nc3ccc(Oc4cccnc4)c(C(F)(F)F)c3)ncc2F)CC(C)(C)N1 [Compound I-59, 5-fluoro-N2-(3-(trifluoromethyl)-4-(pyridin-3-yloxy)phenyl)-N4-(2,2,6,6-tetramethylpiperidin-4-yl)pyrimidine-2,4-diamine]
CN1C(C)(C)CC(Nc2nc(Nc3ccc(Oc4ccncc4)c(C(F)(F)F)c3)ncc2F)CC1(C)C [Compound I-62, 5-fluoro-N2-(3-(trifluoromethyl)-4-(pyridin-4-yloxy)phenyl)-N4-(1,2,2,6,6-pentamethylpiperidin-4-yl)pyrimidine-2,4-diamine]
CC1(C)CC(Nc2nc(Nc3ccc(OCCCN4CCOCC4)c(OC(F)F)c3)ncc2F)CC(C)(C)N1CC(F)(F)F [Compound I-66, N2-(4-(3-morpholinopropoxy)-3-(difluoromethoxy)phenyl)-5-fluoro-N4-(1-(2,2,2-trifluoroethyl)-2,2,6,6-tetramethylpiperidin-4-yl)pyrimidine-2,4-diamine]

Same assay, conditions: human primary T cells stimulated with anti-CD3 + anti-CD28, 24 hours

IC50, 250 to 500 nM:
CN1C(C)(C)CC(Nc2nc(Nc3cccc(-n4nnnc4SCC(F)(F)F)c3)ncc2C(N)=O)CC1(C)C [Compound I-71, 5-aminocarbonyl-N4-(1,2,2,6,6-pentamethylpiperidin-4-yl)-N2-{3-[5-(2,2,2-trifluoroethyl)thio]-1H-tetrazol-1-yl}phenyl-2,4-pyrimidinediamine]

IC50, < 250 nM:
CN1C(C)(C)CC(Nc2nc(Nc3cccc(-n4nnnc4SCC(F)(F)F)c3)ncc2F)CC1(C)C [Compound I-69, 5-fluoro-N4-(1,2,2,6,6-pentamethylpiperidin-4-yl)-N2-{3-[5-(2,2,2-trifluoroethyl)thio]-1H-tetrazol-1-yl}phenyl-2,4-pyrimidinediamine]
CC1(C)CC(Nc2nc(Nc3cccc(-n4nnnc4SCC(F)(F)F)c3)ncc2F)CC(C)(C)N1 [Compound I-70, 5-fluoro-N4-(2,2,6,6-tetramethylpiperidin-4-yl)-N2-{3-[5-(2,2,2-trifluoroethyl)thio]-1H-tetrazol-1-yl}phenyl-2,4-pyrimidinediamine]
CN1C(C)(C)CC(Nc2nc(Nc3ccc(F)c(-n4cnnn4)c3)ncc2C#N)CC1(C)C [Compound I-73, 5-cyano-N2-[4-fluoro-3-(1H-tetrazol-1-yl)]phenyl-N4-(1,2,2,6,6-pentamethylpiperidin-4-yl)-2,4-pyrimidinediamine]
CCCc1nnnn1-c1cc(Nc2ncc(F)c(NC3CC(C)(C)NC(C)(C)C3)n2)ccc1OC [Compound I-74, 5-fluoro-N2-[4-methoxy-3-(5-propyl-1H-tetrazol-1-yl)]phenyl-N4-(2,2,6,6-tetramethylpiperidin-4-yl)-2,4-pyrimidinediamine]

IC50, 500 to 1000 nM:
CCCc1nnnn1-c1cc(Nc2ncc(C(N)=O)c(NC3CC(C)(C)N(C)C(C)(C)C3)n2)ccc1OC [Compound I-75, 5-aminocarbonyl-N2-[4-methoxy-3-(5-propyl-1H-tetrazol-1-yl)]phenyl-N4-(1,2,2,6,6-pentamethylpiperidin-4-yl)-2,4-pyrimidinediamine]

IC50, > 1000 nM:
CC1(C)CC(Nc2nc(Nc3ccc(F)c(-n4cnnn4)c3)ncc2C(N)=O)CC(C)(C)N1 [Compound I-67, 5-aminocarbonyl-N2-[4-fluoro-3-(1H-tetrazol-1-yl)]phenyl-N4-(2,2,6,6-tetramethylpiperidin-4-yl)-2,4-pyrimidinediamine]
CCOc1ccc(Nc2ncc(C(N)=O)c(NC3CC(C)(C)NC(C)(C)C3)n2)cc1-n1nnnc1CC [Compound I-68, 5-aminocarbonyl-N2-[4-ethoxy-3-(5-ethyl-1H-tetrazol-1-yl)]phenyl-N4-(2,2,6,6-tetramethylpiperidin-4-yl)-2,4-pyrimidinediamine]
CC1(C)CC(Nc2nc(Nc3cccc(-n4nnnc4SCC(F)(F)F)c3)ncc2C(N)=O)CC(C)(C)N1 [Compound I-72, 5-aminocarbonyl-N4-(2,2,6,6-tetramethylpiperidin-4-yl)-N2-{3-[5-(2,2,2-trifluoroethyl)thio]-1H-tetrazol-1-yl}phenyl-2,4-pyrimidinediamine]
CCCc1nnnn1-c1cc(Nc2ncc(C(N)=O)c(NC3CC(C)(C)NC(C)(C)C3)n2)ccc1OC [Compound I-76, 5-aminocarbonyl-N2-[4-methoxy-3-(5-propyl-1H-tetrazol-1-yl)]phenyl-N4-(2,2,6,6-tetramethylpiperidin-4-yl)-2,4-pyrimidinediamine]

Reference: patent US9149475B2, “Protein kinase C inhibitors and uses thereof” (Rigel Pharmaceuticals, Inc., priority 2009, dated 2015)
